Laboratory results from patent publication US9394329B2, “Glucopyranosyl derivatives and their uses in medicine” (Sunshine Lake Pharma Co., Ltd., priority 2013, dated 2016).

Assays:
SGLT-2 = biological target: T1, SGLT-2 (Homo sapiens, UniProt P31639); assay: SGLT-2 activity measurement ([14C]-AMG uptake in CHO cells expressing human SGLT2); format: cell-based; details: CHO cells expressing human SGLT2, 0.5 μm [14C]-AMG, 37° C. for 1 hour
T1 construct: expressed in transfected cells
T1 sequence (P31639 1-672): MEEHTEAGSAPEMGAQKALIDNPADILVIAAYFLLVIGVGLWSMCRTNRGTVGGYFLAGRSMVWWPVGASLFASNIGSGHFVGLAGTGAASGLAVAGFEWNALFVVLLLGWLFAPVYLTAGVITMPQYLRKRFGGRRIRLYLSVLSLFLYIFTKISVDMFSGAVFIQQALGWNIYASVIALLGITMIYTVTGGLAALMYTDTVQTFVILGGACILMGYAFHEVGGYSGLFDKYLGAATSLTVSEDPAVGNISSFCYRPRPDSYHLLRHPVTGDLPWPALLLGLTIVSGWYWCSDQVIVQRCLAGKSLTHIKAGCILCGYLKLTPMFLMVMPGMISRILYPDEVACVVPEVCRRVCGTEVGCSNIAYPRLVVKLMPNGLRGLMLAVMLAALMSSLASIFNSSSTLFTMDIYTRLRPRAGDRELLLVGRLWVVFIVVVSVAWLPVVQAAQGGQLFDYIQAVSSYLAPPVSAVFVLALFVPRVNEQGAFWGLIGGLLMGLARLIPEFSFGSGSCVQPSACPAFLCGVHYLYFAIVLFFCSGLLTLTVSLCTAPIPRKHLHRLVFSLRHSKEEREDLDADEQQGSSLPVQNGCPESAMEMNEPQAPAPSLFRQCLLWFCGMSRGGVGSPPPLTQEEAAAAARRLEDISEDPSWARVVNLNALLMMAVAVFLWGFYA
Text: (§1) The following methods can be used to determine the inhibitory activity of the compounds described in the invention for SGLT-1 and SGLT-2.
(§2) ^14C-AMG solution was purchased from PerkinElmer, Cat. No. NEZ080001MC.
(§3) α-Methylglucoside was purchased from Sigma, Cat. No. M9376-100G.
(§4) N-methyl-D-glucosamine was purchased from Sigma, Cat. No. M2004-100G.
(§5) Phloridzin was purchased from Sigma, Cat. No. P3449-1G.
(§6) 96-Well plate was purchased from Corning, Cat. No. 3903.
(§7) Mock-transfected FIP-in CHO cells (3×10^4 cells) and expressing human SGLT1/SGLT2 CHO cells were seeded into 96-well plates respectively. The cells were incubated for 12 hours. Each well of the 96-well plates was washed with 150 μL of sodium-free buffer once. To each well was added 50 μL of sodium-containing buffer containing test compounds having different concentrations and […] [^14C]-AMG. The incubation mixture was incubated at 37° C. for 1 hour. To each well was added 150 μL of precooled sodium-free buffer to terminate the reaction. The cell pellet was washed with sodium-free buffer three times and the residual liquid in well was removed. To each well was added 20 μL of precooled 100 mM NaOH. The 96-well plates were vibrated at 900 rpm for 5 minutes. Scintillation fluid (80 μL) was added to each well which was then vibrated at 600 rpm for 5 minutes. The amount of ^14C-AMG was quantitatively detected using liquid scintillation.

SGLT-1 = biological target: T2, SGLT-1 (Homo sapiens, UniProt P13866); assay: SGLT-1 activity measurement ([14C]-AMG uptake in CHO cells expressing human SGLT1); format: cell-based; details: CHO cells expressing human SGLT1, 0.5 μm [14C]-AMG, 37° C. for 1 hour
T2 construct: expressed in transfected cells
T2 sequence (P13866 1-664): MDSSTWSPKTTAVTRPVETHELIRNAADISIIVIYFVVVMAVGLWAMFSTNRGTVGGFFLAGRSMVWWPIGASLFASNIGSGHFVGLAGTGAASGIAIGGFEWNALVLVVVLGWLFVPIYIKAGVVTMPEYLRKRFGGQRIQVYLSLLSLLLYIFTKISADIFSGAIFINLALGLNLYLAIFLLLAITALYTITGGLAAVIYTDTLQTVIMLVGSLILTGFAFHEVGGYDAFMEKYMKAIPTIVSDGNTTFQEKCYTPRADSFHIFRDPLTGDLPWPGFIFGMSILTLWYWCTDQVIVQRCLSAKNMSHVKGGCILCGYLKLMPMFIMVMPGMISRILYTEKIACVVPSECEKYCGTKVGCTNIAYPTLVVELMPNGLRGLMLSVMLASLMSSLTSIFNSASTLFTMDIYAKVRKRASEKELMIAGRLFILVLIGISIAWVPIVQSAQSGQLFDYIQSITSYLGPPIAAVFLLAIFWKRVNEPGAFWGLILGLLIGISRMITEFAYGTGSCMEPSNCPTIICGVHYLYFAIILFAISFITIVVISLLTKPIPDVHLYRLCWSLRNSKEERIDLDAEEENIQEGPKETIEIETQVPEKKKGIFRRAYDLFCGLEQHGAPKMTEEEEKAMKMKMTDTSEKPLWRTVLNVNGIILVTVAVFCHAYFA
Text: as §1, §2, §3, §4, §5, §6, §7

IC50 (SGLT-2) | IC50 (SGLT-1) | Structure (SMILES)
13.8 nM | – | CCOc1ccc(Cc2cc([C@]34OC[C@](C5CNC(=O)O5)(O3)[C@@H](O)[C@H](O)[C@H]4O)ccc2Cl)cc1 (stereo partly drawn) [Example 27, 5-((1S,2S,3S,4R,5S)-5-(4-Chloro-3-(4-ethoxybenzyl)phenyl)-2,3,4-trihydroxy-6,8-dioxabicyclo[3.2.1]octan-1-yl)oxazolidin-2-one]
0.85 nM | 170 nM | CCOc1ccc(Cc2cc([C@]34OC[C@](C(C)(C)O)(O3)[C@@H](O)[C@H](O)[C@H]4O)ccc2Cl)cc1F [Example 20, (1S,2S,3S,4R,5S)-5-[4-Chloro-3-[(4-ethoxy-3-fluoro-phenyl)methyl]phenyl]-1-(1-hydroxy-1-methyl-ethyl)-6,8-dioxabicyclo[3.2.1]octane-2,3,4-triol]
1.22 nM | 820 nM | CC(O)[C@@]12CO[C@@](c3ccc(Cl)c(Cc4ccc(OCC(F)(F)F)cc4)c3)(O1)[C@H](O)[C@@H](O)[C@@H]2O (stereo partly drawn) [Example 17, (1R,2S,3S,4R,5S)-5-[4-Chloro-3-[[4-(2,2,2-trifluoroethoxy)phenyl]methyl]phenyl]-1-(1-hydroxyethyl)-6,8-dioxabicyclo[3.2.1]octane-2,3,4-triol]
6.85 nM | – | CCOc1ccc(Cc2cc([C@]34OC[C@](C5CO5)(O3)[C@@H](O)[C@H](O)[C@H]4O)ccc2Cl)cc1 (stereo partly drawn) [Example 26, (1S,2S,3S,4R,5S)-5-[4-chloro-3-[(4-ethoxyphenyl)methyl]phenyl]-1-(oxiran-2-yl)-6,8-dioxabicyclo[3.2.1]octane-2,3,4-triol]
1.46 nM | – | CCOc1ccc(C(O)c2cc([C@]34OC[C@](C(C)O)(O3)[C@@H](O)[C@H](O)[C@H]4O)ccc2Cl)cc1 (stereo partly drawn) [Example 29, (1R,2S,3S,4R,5S)-5-[4-chloro-3-[(4-ethoxyphenyl)-hydroxy-methyl]phenyl]-1-(1-hydroxyethyl)-6,8-dioxabicyclo[3.2.1]octane-2,3,4-triol]
12.1 nM | – | CCOc1ccc(Cc2cccc([C@]34OC[C@](C(C)O)(O3)[C@@H](O)[C@H](O)[C@H]4O)c2)cc1 (stereo partly drawn) [Example 30, (1R,2S,3S,4R,5S)-5-[3-[(4-Ethoxyphenyl)methyl]phenyl]-1-(1-hydroxyethyl)-6,8-dioxabicyclo[3.2.1]octane-2,3,4-triol]
2.19 nM | – | CCOc1ccc(Cc2cc([C@]34OC[C@](C(C)(C)O)(O3)[C@@H](O)[C@H](O)[C@H]4O)ccc2Cl)c(F)c1F [Example 24, (1S,2S,3S,4R,5S)-5-[4-Chloro-3-[(4-ethoxy-2,3-difluoro-phenyl)methyl]phenyl]-1-(1-hydroxy-1-methyl-ethyl)-6,8-dioxabicyclo[3.2.1]octane-2,3,4-triol]

The next lines start with the molecule.

Structure (SMILES) | IC50 (SGLT-2) | IC50 (SGLT-1)
CC#CC(O)[C@@]12CO[C@@](c3ccc(Cl)c(Cc4ccc(OCC)cc4)c3)(O1)[C@H](O)[C@@H](O)[C@@H]2O (stereo partly drawn) [Example 5, (1R,2S,3S,4R,5S)-5-[4-chloro-3 [(4-ethoxyphenyl)methyl]phenyl]-1-(1-hydroxybut-2-ynyl)-6,8-dioxabicyclo[3.2.1]octane-2,3,4-triol] | – | 840 nM
CCOc1ccc(Cc2cc([C@]34OC[C@](C(O)CN)(O3)[C@@H](O)[C@H](O)[C@H]4O)ccc2Cl)cc1 (stereo partly drawn) [Example 10, (1R,2S,3S,4R,5S)-1-(2-Amino-1-hydroxy-ethyl)-5-[4-chloro-3-[(4-ethoxyphenyl)methyl]phenyl]-6,8-dioxabicyclo[3.2.1]octane-2,3,4-triol] | 3730 nM | –
C#CC(O)C12CO[C@@](c3ccc(Cl)c(Cc4ccc(OCC)cc4)c3)(O1)[C@H](O)[C@@H](O)[C@@H]2O (stereo in doubt) [Example 4, (1S,2S,3S,4R,5S)-5-[4-Chloro-3 [(4-ethoxyphenyl)methyl]phenyl]-1-(1-hydroxyprop-2-yn-1-yl)-6,8-dioxabicyclo[3.2.1]octane-2,3,4-triol] | 9.39 nM | 4210 nM
CCOc1ccc(Cc2cc([C@]34OC[C@](C(C)O)(O3)[C@@H](O)[C@H](O)[C@H]4O)ccc2Cl)cc1 (stereo partly drawn) [Example 1, (1R,2S,3S,4R,5S)-5-[4-Chloro-3-[(4-ethoxyphenyl)methyl]phenyl]-1-(1-hydroxyethyl)-6,8-dioxabicyclo[3.2.1]octane-2,3,4-triol] | 1.65 nM | 260 nM
CCOc1ccc(Cc2cc([C@]34OC[C@](C(C)(C)O)(O3)[C@@H](O)[C@H](O)[C@H]4O)ccc2Cl)cc1 [Example 2, (1S,2S,3S,4R,5S)-5-[4-Chloro-3-[(4-ethoxyphenyl)methyl]phenyl]-1-(2-hydroxypropan-2-yl)-6,8-dioxabicyclo[3.2.1]octane-2,3,4-triol] | 1.14 nM | 110 nM
CCOc1ccc(Cc2cc([C@]34OC[C@](C5(O)CC5)(O3)[C@@H](O)[C@H](O)[C@H]4O)ccc2Cl)cc1 [Example 6, (1S,2S,3S,4R,5S)-5-[4-Chloro-3 [(4-ethoxyphenyl)methyl]phenyl]-1-(1-hydroxycyclopropyl)-6,8-dioxabicyclo[3.2.1]octane-2,3,4-triol] | 3.6 nM | 26800 nM
CCOc1ccc(Cc2cc([C@]34OC(C)[C@](CO)(O3)[C@@H](O)[C@H](O)[C@H]4O)ccc2Cl)cc1 (stereo partly drawn) [Example 8, (1R,2S,3S,4R,5S)-5-[4-Chloro-3-[(4-ethoxyphenyl)methyl]phenyl]-1-(hydroxymethyl)-7-methyl-6,8-dioxabicyclo[3.2.1]octane-2,3,4-triol] | 51.8 nM | –
CC(C)(O)[C@@]12CO[C@@](c3ccc(Cl)c(Cc4ccc(OC(F)(F)F)cc4)c3)(O1)[C@H](O)[C@@H](O)[C@@H]2O [Example 16, (1S,2S,3S,4R,5S)-5-[4-chloro-3-[[4-(trifluoromethoxy)phenyl]methyl]phenyl]-1-(1-hydroxy-1-methyl-ethyl)-6,8-dioxabicyclo[3.2.1]octane-2,3,4-triol] | 2.95 nM | 1310 nM
CCOc1ccc(Cc2cc([C@]34OCC(C(O)CC)(O3)[C@@H](O)[C@H](O)[C@H]4O)ccc2Cl)cc1 (stereo in doubt) [Example 3, (1S,2S,3S,4R,5S)-5-[4-Chloro-3 [(4-ethoxyphenyl)methyl]phenyl]-1-(1-hydroxypropyl)-6,8-dioxabicyclo[3.2.1]octane-2,3,4-triol] | 9.8 nM | –
CCOc1ccc(Cc2cc([C@]34OC[C@](C(O)CNC)(O3)[C@@H](O)[C@H](O)[C@H]4O)ccc2Cl)cc1 (stereo partly drawn) [Example 11, (1R,2S,3S,4R,5S)-5-[4-chloro-3-[(4-ethoxyphenyl)methyl]phenyl]-1-[1-hydroxy-2-(methylamino)ethyl]-6,8-dioxabicyclo[3.2.1]octane-2,3,4-triol] | 498 nM | –
CCOc1ccc(Cc2cc([C@]34OC[C@](C(O)CO)(O3)[C@@H](O)[C@H](O)[C@H]4O)ccc2Cl)cc1 (stereo partly drawn) [Example 7, (1R,2S,3S,4R,5S)-5-[4-Chloro-3-[(4-ethoxyphenyl)methyl]phenyl]-1-(1,2-dihydroxyethyl)-6,8-dioxabicyclo[3.2.1]octane-2,3,4-triol] | 4.96 nM | –
CCOC(=O)OC(C)[C@@]12CO[C@@](c3ccc(Cl)c(Cc4ccc(OCC)cc4)c3)(O1)[C@H](O)[C@@H](O)[C@@H]2O (stereo partly drawn) [Example 12, 1-[(1S,2S,3S,4R,5S)-5-[4-Chloro-3-[(4-ethoxyphenyl)methyl]phenyl]-2,3,4-trihydroxy-6,8-dioxabicyclo[3.2.1]octan-1-yl]ethyl ethyl carbonate] | 12.7 nM | –
